Measured values from BindingDB's records for doi:10.1021/bi200552p (Astrazeneca Pharmaceuticals, 2011).
“And” between values parts separate entries of the source, which are not always exact repeats. Equal values may be shown once.

Biological target: T1, Fatty-acid amide hydrolase 1 (Homo sapiens, UniProt O00519)
T1 sequence (O00519 whole entry): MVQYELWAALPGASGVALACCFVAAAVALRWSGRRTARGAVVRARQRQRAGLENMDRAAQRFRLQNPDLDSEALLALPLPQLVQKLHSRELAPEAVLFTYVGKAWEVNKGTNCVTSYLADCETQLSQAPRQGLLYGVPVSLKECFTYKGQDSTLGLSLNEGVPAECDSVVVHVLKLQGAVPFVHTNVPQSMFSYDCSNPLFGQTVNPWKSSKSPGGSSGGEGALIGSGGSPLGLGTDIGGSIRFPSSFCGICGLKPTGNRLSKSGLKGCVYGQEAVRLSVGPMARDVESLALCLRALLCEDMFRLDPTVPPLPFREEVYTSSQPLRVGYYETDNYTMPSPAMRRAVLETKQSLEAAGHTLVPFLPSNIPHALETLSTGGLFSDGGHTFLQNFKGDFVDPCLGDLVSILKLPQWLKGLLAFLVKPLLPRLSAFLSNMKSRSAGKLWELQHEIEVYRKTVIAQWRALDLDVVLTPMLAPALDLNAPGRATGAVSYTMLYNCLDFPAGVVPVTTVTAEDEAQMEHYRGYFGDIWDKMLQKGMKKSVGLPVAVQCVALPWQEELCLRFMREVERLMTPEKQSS
Test: Inhibition Assay
Settings: pH 8; 22 °C
Procedure: the enzyme activity of recombinant human FAAH was measured according to published procedures with minor modifications by either a fluorescent assay using D-AMC or a radioactive assay using tritium-labeled anandamide (3H-anandamide)51 as substrate.

Question: For `COc1cccc2sc(-c3ccc(NC(=O)C4CCN(S(=O)(=O)c5cccs5)CC4)cc3)nc12` [Benzothiazole-based analogue, 1], which IC50 is on record?
Answer: Its IC50 is 2 nM and 2.1 nM and 2.3 nM and 2.5 nM and 5.1 nM and 3.8 nM.
